Measured values published in patent publication US7550133B2, “Respiratory drug condensation aerosols and methods of making and using them” (Alexza Pharmaceuticals, Inc., priority 2002, dated 2009).

Experiments:
[1] = Volatilization Using Stainless Steel Foil; HPLC analysis of the condensation aerosol; type: physicochemical; conditions: for Purity of the aerosol (purity analysis): single drug on stainless steel foil substrate (5 cm^2), film thickness about 0.4-1.2 μm, capacitor charged to 15 V; for Purity of each drug in the aerosol from a mixture of albuterol and flunisolide: about 0.20 mg flunisolide and about 0.16 mg albuterol co-coated on stainless steel foil (5 cm^2), film about 0.64 μm, capacitor 15.5 V
Description: Strips of clean 304 stainless steel foil (0.0125 cm thick, Thin Metal Sales) having dimensions 1.3 cm by 7.0 cm were dip-coated approximately 4.5 to 5 cm on the strip with an asthma drug solution prepared as described above. The foil was then partially dipped three times into solvent to rinse drug off of the last 2-3 cm of the dipped end of the foil. Alternatively, the drug-coating from this bottom 2-3 cm area was carefully taken off with a razor blade. The final coated area was between 2.0-2.5 cm by 1.3 cm on both sides of the foil, for a total area of between 5.2-6.5 cm^2. Foils were prepared as stated above and then some were extracted with methanol or acetonitrile as standards. The amount of drug was determined from quantitative HPLC analysis. Using the known drug-coated surface area, the thickness was then calculated.
After drying, the drug-coated foil was placed into a volatilization chamber constructed of a Delrin block (the airway) and brass bars, which served as electrodes. The dimensions of the airway were 1.3 cm high by 2.6 cm wide by 8.9 cm long. The drug-coated foil was placed into the volatilization chamber such that the drug-coated section was between the two sets of electrodes. After securing the top of the volatilization chamber, the electrodes were connected to a 1 Farad capacitor (Phoenix Gold). The back of the volatilization chamber was connected to a two micron Teflon® filter (Savillex) and filter housing, which were in turn connected to the house vacuum. Sufficient airflow was initiated (typically 30 L/min=1.5 m/sec), at which point the capacitor was charged with a power supply, typically to between 14-17 Volts.
The circuit was closed with a switch, causing the drug-coated foil to resistively heat to temperatures of about 280-430° C. (as measured with an infrared camera (FLIR Thermacam SC3000)), in about 200 milliseconds. After the drug had vaporized, airflow was stopped and the Teflon® filter was extracted with acetonitrile. Drug extracted from the filter was analyzed generally by HPLC UV absorbance generally at 225 nm using a gradient method aimed at detection of impurities to determine percent purity. Also, the extracted drug was quantified to determine a percent yield, based on the mass of drug initially coated onto the substrate. A percent recovery was determined by quantifying any drug remaining on the substrate and chamber walls, adding this to the quantity of drug recovered in the filter and comparing it to the mass of drug initially coated onto the substrate.

[2] = Volatilization from stainless steel cylinder (flashbar); HPLC analysis of the condensation aerosol; type: physicochemical; conditions: drug dip coated on stainless steel flashbar, capacitors 20.5 volts, heated to about 400° C. within about 200 milliseconds, 15 L/min room air
Description: A hollow stainless steel cylinder with thin walls, typically 0.12 mm wall thickness, a diameter of 13 mm, and a length of 34 mm was cleaned in dichloromethane, methanol, and acetone, then dried, and fired at least once to remove any residual volatile material and to thermally passivate the stainless steel surface. The substrate was then dip-coated with a drug coating solution (prepared as described above). The dip-coating was done using a computerized dipcoating machine to produce a thin layer of drug on the outside of the substrate surface. The substrate was lowered into the drug solution and then removed from the solvent at a rate of typically 5-25 cm/sec. (To coat larger amounts of material on the substrate, the substrate was removed more rapidly from the solvent or the solution used was more concentrated.) The substrate was then allowed to dry for 30 minutes inside a fume hood. If either dimethylformamide (DMF) or a water mixture was used as a dip-coating solvent, the substrate was vacuum dried inside a desiccator for a minimum of one hour. The drug-coated portion of the cylinder generally has a surface area of 8 cm^2. By assuming a unit density for the drug, the initial drug coating thickness was calculated. The amount of drug coated onto the substrates was determined in the same manner as that described above: the substrates were coated, then extracted with methanol or acetonitrile and analyzed with quantitative HPLC methods, to determine the mass of drug coated onto the substrate.
The drug-coated substrate was placed in a surrounding glass tube connected at the exit end via Tygon® tubing to a filter holder fitted with a Teflon® filter (Savillex). The junction of the tubing and the filter was sealed with paraffin film. The substrate was placed in a fitting for connection to two 1 Farad capacitors wired in parallel and controlled by a high current relay. The capacitors were charged by a separate power source to about 18-22 Volts and most of the power was channeled to the substrate by closing a switch and allowing the capacitors to discharge into the substrate. The substrate was heated to a temperature of between about 300-500° C. in about 100 milliseconds. The heating process was done under an airflow of 15 L/min, which swept the vaporized drug aerosol into a 2 micron Teflon® filter.
After volatilization, the aerosol captured on the filter was recovered for quantification and analysis. The quantity of material recovered in the filter was used to determine a percent yield, based on the mass of drug coated onto the substrate. The material recovered in the filter was also analyzed generally by HPLC UV absorbance at typically 225 nm using a gradient method aimed at detection of impurities, to determine purity of the thermal vapor. Any material deposited on the glass sleeve or remaining on the substrate was also recovered and quantified to determine a percent total recovery ((mass of drug in filter+mass of drug remaining on substrate and glass sleeve)/mass of drug coated onto substrate). For compounds without UV absorption GCMS or LC/MS was used to determine purity and to quantify the recovery. Some samples were further analyzed by LC/MS to confirm the molecular weight of the drug and any degradants.
About 1.2 mg of albuterol was dip coated onto the stainless steel surface of a flashbar apparatus. (The flashbar is a cylinder 3.5 cm long and 1.3 cm in diameter consisting of a hollow tube of 0.005″ thick stainless steel). Brass electrodes were connected to either end of the steel cylinder. The coated flashbar was secured in an electrical mount, which connected to two 1.0 Farad capacitors in parallel. An airway was provided by a 2 cm diameter glass sleeve placed around the flashbar. 15 L/min of room air were pulled by a house vacuum through the vaporization chamber and a filter housing, which contained a two-micron Teflon filter. […]

| Compound | Purity of the aerosol (purity analysis) [1] | Purity of the aerosol (purity analysis by HPLC) [2] | Purity of each drug in the aerosol from a mixture of albuterol and flunisolide [1] |
| --- | --- | --- | --- |
| CCCn1c(=O)c2[nH]c(C3CCCC3)nc2n(CCC)c1=O [CPX] | 99.8% |  |  |
| CC(C)Cn1c(=O)n(C)c(=O)c2[nH]cnc21 [IBMX] | 99.9% |  |  |
| CC(C)(C)NCC(O)c1ccc(O)c(CO)c1 (centres unmarked) [albuterol] |  | 94.4% | 97.2% |
| CCCC1O[C@@H]2C[C@H]3[C@@H]4CCC5=CC(=O)C=C[C@]5(C)[C@H]4[C@@H](O)C[C@]3(C)[C@]2(C(=O)CO)O1 (some centres unmarked) [budesonide] |  | 70.5% |  |
| CC(C)C(=O)OCC(=O)[C@@]12O[C@H](C3CCCCC3)O[C@@H]1C[C@H]1[C@@H]3CCC4=CC(=O)C=C[C@]4(C)[C@H]3[C@@H](O)C[C@@]12C [ciclesonide] | 99.03% |  |  |
| CCC(=O)O[C@]1(C(=O)SCF)[C@H](C)C[C@H]2[C@@H]3C[C@H](F)C4=CC(=O)C=C[C@]4(C)[C@@]3(F)[C@@H](O)C[C@@]21C [fluticasone propionate] | 91.6% |  |  |
| CC(C)NCC(O)c1cc(O)cc(O)c1 (centres unmarked) [metaproterenol] |  | 99.1% |  |
| CC(C)(C)NCC(O)c1cc(O)cc(O)c1 (centres unmarked) [terbutaline] |  | 99.3% |  |
| Cn1c(=O)c2[nH]cnc2n(C)c1=O [theophylline] |  | about 99.5% |  |
| CC1(C)O[C@@H]2C[C@H]3[C@@H]4CCC5=CC(=O)C=C[C@]5(C)[C@@]4(F)[C@@H](O)C[C@]3(C)[C@]2(C(=O)CO)O1 [triamcinolone acetonide] |  | about 92.0% |  |
| flunisolide | 94.9% | 97.6% | 94.5% |
